The values below come from patent publication US6579892B1, “Triazole compounds with dopamine-D3-receptor affinity” (Abbott Laboratories, priority 1999, dated 2003).

Series [1] deals with T1, Cloned human D3-receptor (Homo sapiens, UniProt P35462).
T1 construct: host or cells: CCL 1,3 mouse fibroblasts
Briefly: D3 binding test (125iodosulpiride displacement). The note with it: negative logarithm of Ki (D3) [M]. The procedure:
Cloned human D3-receptor-expressing CCL 1,3 mouse fibroblasts, obtainable from Res. Biochemicals Internat. One Strathmore Rd., Natick, Mass. 01760-2418 USA, were used for the binding studies.
The D3-expressing cells were multiplied in RPMI-1640 containing 10% fetal calf serum (GIBCO No. 041-32400 N); 100 U of penicillin/ml and 0.2% streptomycin (GIBO BRL, Gaithersburg, Md., USA). After 48 h, the cells were washed with PBS and incubated for 5 min with 0.05% trypsin-containing PBS. After that, the mixture was neutralized with medium and the cells were collected by centrifuging at 300 g. In order to lyse the cells, the pellet was washed briefly with lysis buffer (5 mM Tris-HCl, pH 7.4, containing 10% glycerol) and after that incubated, at 4° C. for 30 min, at a concentration of 10^7 cells/ml of lysis buffer. The cells were centrifuged at 200 g for 10 min and the pellet was stored in liquid nitrogen.
For the D3-receptor binding test, the membranes were suspended in incubation buffer (50 mM Tris-HCl, pH 7.4, containing 120 mM NaCl, 5 mM KCl, 2 mM CaCl2, 2 mM MgCl2, 10 μM quinolinol, 0.1% ascorbic acid and 0.1% BSA), at a concentration of approx. 10^6 cells/250 μl of test mixture, and incubated at 30° C. […] 0.1 nM ^125iodosulpiride in the presence and absence of the test substance. The nonspecific binding was determined using 10^−6 M spiperone.
After 60 min, the free radioligand and the bound radioligand were separated by filtering through GF/B glass fiber filters (Whatman, England) on a Skatron cell harvester (Skatron, Lier, Norway), and the filters were washed with ice-cold Tris-HCl buffer, pH-7.4. The radioactivity which had collected on the filters was quantified using a Packard 2200 CA liquid scintillation counter.
The Ki values were determined by means of nonlinear regression analysis using the LIGAND program.

The target in series [2] is T2, human dopamine D2A receptors (Homo sapiens, UniProt P14416).
T2 construct: expressed in transfected cells; host or cells: HEK-293
Briefly: D2 binding test (low affinity state, 125I-spiperone). The conditions noted are these: ratio Ki(D2)/Ki(D3). The procedure: All the media contained 100 units of penicillin […] and 100 μg/ml of streptomycin/ml. The cells were maintained at 37° C. in a moist atmosphere containing 5% CO2.
The cells were prepared for the binding studies by trypsinizing them (0.05% solution of trypsin) at room temperature for 3-5 minutes. After that, the cells were centrifuged at 250 g for 10 minutes and treated with lysis buffer (5 mM Tris-HCl, 10% glycerol, pH 7.4) at 4° C. for 30 minutes. After centrifuging at 250 g for 10 minutes, the residue was stored at −20° C. until used.
Low affinity state dopamine D2 receptor using ^125I-spiperone (81 TBq/mmol, Du Pont de Nemours, Dreieich)
The test mixtures (1 ml) consisted of 1×10^5 cells in incubation buffer (50 mM Tris, 120 mM NaCl, 5 mM KCl, 2 mM MgCl2 and 2 mM CaCl2, pH 7.4 with HCl) and […] ^125I-spiperone (total binding) or additionally 1 μM haloperidol (nonspecific binding) or test substance.
After the test mixtures had been incubated at 25° C. for 60 minutes, they were filtered through GM/B glass filters (Whatman, England) on a Skatron cell harvester (from Zinsser, Frankfurt), and the filters were washed with ice-cold 50 mM Tris-HCl buffer, pH 7.4. The radioactivity which had collected on the filters was quantified using a Packard 2200 CA liquid scintillation counter.
The results were evaluated as described in a).
The Ki values were determined by way of nonlinear regression analysis using the LIGAND program or by converting the IC50 values using the Cheng and Prusoff formula.

Counter-ions that a name gives are not always drawn.

T1 sequence (P35462 whole entry): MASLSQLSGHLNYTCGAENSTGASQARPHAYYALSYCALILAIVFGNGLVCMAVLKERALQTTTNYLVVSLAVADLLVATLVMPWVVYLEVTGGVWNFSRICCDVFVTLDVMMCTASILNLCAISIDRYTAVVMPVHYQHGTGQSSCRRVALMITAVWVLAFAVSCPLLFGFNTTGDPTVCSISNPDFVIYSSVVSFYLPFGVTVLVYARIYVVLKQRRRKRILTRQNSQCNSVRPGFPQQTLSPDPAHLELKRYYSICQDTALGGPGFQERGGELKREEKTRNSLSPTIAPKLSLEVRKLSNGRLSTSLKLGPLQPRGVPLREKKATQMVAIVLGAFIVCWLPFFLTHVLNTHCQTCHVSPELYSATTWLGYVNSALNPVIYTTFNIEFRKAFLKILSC
T2 sequence (P14416 whole entry): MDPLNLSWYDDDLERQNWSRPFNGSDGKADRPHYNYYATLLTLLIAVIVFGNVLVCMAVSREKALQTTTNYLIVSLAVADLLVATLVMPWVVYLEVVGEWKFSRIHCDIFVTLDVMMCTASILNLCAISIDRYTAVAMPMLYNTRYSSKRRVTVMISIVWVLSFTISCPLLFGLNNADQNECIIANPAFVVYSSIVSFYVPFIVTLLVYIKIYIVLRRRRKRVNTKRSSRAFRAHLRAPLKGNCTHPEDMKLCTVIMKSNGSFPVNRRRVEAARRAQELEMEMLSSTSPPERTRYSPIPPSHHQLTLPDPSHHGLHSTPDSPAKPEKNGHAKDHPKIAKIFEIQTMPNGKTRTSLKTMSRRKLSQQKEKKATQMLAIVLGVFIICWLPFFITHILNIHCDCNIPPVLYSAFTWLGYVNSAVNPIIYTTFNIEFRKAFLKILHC

As a reminder, the melting point is the temperature, or range, at which the solid turns liquid. Turning to `Cl.Cn1c(SCCCNCC2CCc3cc(Br)ccc3C2)nnc1-c1ccccc1` (stereo not drawn), the melting point was 88 °C (dec.).
On the same count and under the same terms, with `Cc1ncsc1-c1nnc(SCCCNCCCC2CCc3ccc(F)cc32)n1C.Cl` (stereo not drawn) the figure was 123 °C.
In turn, `COc1cc2c(cc1OC)C(NCCCSc1nnc(-c3ccccc3)n1C)CC2.Cl` (stereo not drawn) displayed a melting point of 201 to 202 °C.
On to “3-[3-(6-Methyl-1,2,3,4-tetrahydronaphth-2-ylmethylamino)propylmercapto]-4-methyl-5-phenyl-1,2,4(4H)-triazole [Example 14]”, for which the “pKi (D3)” value in series [1] turned out to be 7.82. For the same compound, in series [2], the “Selectivity (Ki(D2)/Ki(D3))” value turned out to be 46.
As for “3-[3-(N-(Indan-2-yl)propylamino)propylmercapto]-4-methyl-5-phenyl-1,2,4(4H)-triazole Fumarate [Example 1]”, the “pKi (D3)” value in series [1] amounted to 9.05. The “Selectivity (Ki(D2)/Ki(D3))” value in series [2] came to 71.
`COc1ccc2c(c1)CC(CCCNCCCSc1nnc(-c3ccccc3)n1C)CC2` (stereo not drawn) (as salt: HCl) [Example 18, 3-[3-(N-(7-Methoxy-1,2,3,4-tetrahydronaphth-2-yl)propylamino)propylmercapto]-4-methyl-5-phenyl-1,2,4(4H)-triazole] gave a melting point of 92 to 95 °C.
The compound `CCOC(=O)c1nnc(SCCCNC2Cc3ccccc3C2)n1C` (as salt: HCl) [Example 25, Ethyl-5-{[3-(indan-2-ylamino)propyl]mercapto}-4-methyl-1,2,4(4H)-triazole-3-carboxylate] yielded a melting point of 135 to 139 °C.
Regarding `Cc1ccc2c(c1)CCC(NCCCSc1nnc(-c3ccccc3)n1C)C2` (stereo not drawn) [Example 4, 3-[3-(6-Methyl-1,2,3,4-tetrahydronaphth-2-ylamino)propylmercapto]-4-methyl-5-phenyl-1,2,4(4H)-triazole], the melting point was 69 to 73 °C.
`CCCN(CCCSc1nnc(-c2scnc2C)n1C)C1CCc2ccc(OC)cc2C1` (stereo not drawn) [Example 26, 3-[3-(N-(7-Methoxy-1,2,3,4-tetrahydronaphth-2-yl)-propylamino)propylmercapto]-4-methyl-5-(4-methyl-1,3-thiazol-5-yl)-1,2,4(4H)-triazole]: the Ki in series [1] (read-out: pKi (D3) (converted)) was 8.71e-09 M. In series [2], the “Selectivity (Ki(D2)/Ki(D3))” value is on record as 157.
